Reference: patent US20220153734A1, “Pyrazolopyridine Compounds For IRE1 Inhibition” (Optikira, LLC, priority 2019, published 2022)

Key:
IRE1α = target: T1, IRE1α (Homo sapiens, UniProt O75460); assay: Biochemical assay: inhibition of RNase activity of IRE1α; details: enzyme 0.325 nM, substrate 100 nM, 20 minutes
T1 construct: purchased Signal Chem E31-11G
Protocol: Biochemical Assay: Inhibition of RNase Activity of IRE1α
The RNase reactions were performed in 384 well black ProxiPlate-384 Plus plates (PERKIN Elmer) using 50 mM Tris assay buffer with 0.5 mM MgCl2, 10 mM KCl, 0.03% Tween, 2 mM DTT and 1% DMSO. Test compounds were prepared on the day of assay and dispensed using D300 digital dispenser as a 10-point ½ log dilution series in duplicate, normalized to a final DMSO concentration of […]. Test compounds were pre-incubated for 30 min at room temperature with IRE1α kinase (E31-11G from Signal Chem) in 2.5 μL of assay buffer. Then 2.5 μl of assay buffer containing substrate (5′ Alexa Fluor 647-rCrArU rGrUrC rCrGrC rArGrC rGrCrArUrG-Iowa Black RQ quencher 3′) added, giving a final concentration of enzyme of 0.325 nM and of substrate of 100 nM. After 20 minutes incubation at room temperature the reactions were stopped by added 5 μL of 5M urea, incubated at room temperature for 10 minutes and fluorescence measured on a plate reader (EnVision, PerkinElmer). IC50 values calculated by fitting a sigmoidal curve to percent inhibition of control versus compound concentration.

[1] = system: ARPE-19 cells stably expressing XBP1 (a.a. 1-376); assay: Cellular XBP1 splicing assay (NanoLuc luciferase, thapsigargin); type: cell-based; details: thapsigargin 150 nM
Protocol: Cellular XBP1 Splicing Assay
ARPE-19 cells stably expressing XBP1 (a.a. 1-376) with nano-luciferase gene sequence linked so it is in frame when XBP1 is spliced, were cultured in F12 media, 10% FBS, 0.044% sodium bicarbonate, 150 μg/ml hygromycin B and seeded for assays at 5,000 cells in 384 well plates in culture media without hygromycin B and incubated at 37° C./5% CO2. After overnight incubation test compounds were added to the cell plate in a 10-point ½ log dilution series in duplicate (final DMSO concentration 0.117%). After further incubation of 30 minutes thapsigargin was added (final concentration 150 nM) and then another 4 hour incubation. A NanoLuc luciferase assay (Promega) was used according to the manufacturer's instructions to detect the luciferase and luminescence measured on a luminometer (EnVision, PerkinElmer). IC50 values calculated by fitting a sigmoidal curve to percent inhibition of control of compound concentration.

T1 sequence (O75460 468-977 limits assumed): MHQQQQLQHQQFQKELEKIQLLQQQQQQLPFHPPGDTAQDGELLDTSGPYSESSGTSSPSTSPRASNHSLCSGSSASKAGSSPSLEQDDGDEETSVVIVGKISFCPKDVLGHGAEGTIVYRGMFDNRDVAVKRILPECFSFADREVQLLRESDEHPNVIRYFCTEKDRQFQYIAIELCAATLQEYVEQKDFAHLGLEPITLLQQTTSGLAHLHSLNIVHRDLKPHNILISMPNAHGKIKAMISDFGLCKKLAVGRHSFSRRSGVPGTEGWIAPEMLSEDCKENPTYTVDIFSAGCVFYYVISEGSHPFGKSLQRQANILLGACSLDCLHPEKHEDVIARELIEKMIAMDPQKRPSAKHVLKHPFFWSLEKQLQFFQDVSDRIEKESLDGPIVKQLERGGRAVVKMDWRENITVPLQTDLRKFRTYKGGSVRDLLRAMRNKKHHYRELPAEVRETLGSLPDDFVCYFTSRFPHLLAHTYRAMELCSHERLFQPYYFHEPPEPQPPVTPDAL

SMILES | IC50 (IRE1α) | IC50 ([1]; Homo sapiens, ARPE-19, 4 h) | IC50 ([1]; 4 hour)
COCC(C)NC1CC=C(c2cnc(N)c3c(-c4ccc(NS(=O)(=O)Cc5ccccc5Cl)c(F)c4)nn(C(C)C)c23)CC1 (single isomer, unassigned) [Compound B4, N-(4-(4-amino-1-isopropyl-7-(4-((1-methoxypropan-2-yl)amino)cyclohex-1-en-1-yl)-1H-pyrazolo[4,3-c]pyridin-3-yl)-2-fluorophenyl)-1-(2-chlorophenyl)methanesulfonamide] | 1.2 nM | 6.8 nM | 
COCC(C)NC1CC=C(c2cnc(N)c3c(-c4ccc(NS(=O)(=O)Cc5ccccc5Cl)c(F)c4)nn(C(C)C)c23)CC1 (single isomer, unassigned) [Compound B5, N-(4-(4-amino-1-isopropyl-7-(4-((1-methoxypropan-2-yl)amino)cyclohex-1-en-1-yl)-1H-pyrazolo[4,3-c]pyridin-3-yl)-2-fluorophenyl)-1-(2-chlorophenyl)methanesulfonamide] | 1.2 nM |  | 6.5 nM
CC(C)n1nc(-c2cc(F)c(NS(=O)(=O)Cc3ccccc3Cl)cc2F)c2c(N)ncc(C3=CCC(NC4COC4)CC3)c21 (single isomer, unassigned) [Compound B7, N-(4-(4-amino-1-isopropyl-7-(4-(oxetan-3-ylamino)cyclohex-1-en-1-yl)-1H-pyrazolo[4,3-c]pyridin-3-yl)-2,5-difluorophenyl)-1-(2-chlorophenyl)methanesulfonamide] | 21 nM |  | 410 nM
COc1ccc(Cl)c(S(=O)(=O)Nc2ccc(-c3nn(C(C)C)c4c(C5=CCC(NC6COC6)CC5)cnc(N)c34)cc2F)c1 (single isomer, unassigned) [Compound B8, N-(4-(4-amino-1-isopropyl-7-(4-(oxetan-3-ylamino)cyclohex-1-en-1-yl)-1H-pyrazolo[4,3-c]pyridin-3-yl)-2-fluorophenyl)-2-chloro-5-methoxybenzenesulfonamide] | 6.7 nM |  | 19 nM
COc1ccc(Cl)c(S(=O)(=O)Nc2ccc(-c3nn(C(C)C)c4c(C5=CCC(NC6COC6)CC5)cnc(N)c34)cc2F)c1 (single isomer, unassigned) [Compound B9, N-(4-(4-amino-1-isopropyl-7-(4-(oxetan-3-ylamino)cyclohex-1-en-1-yl)-1H-pyrazolo[4,3-c]pyridin-3-yl)-2-fluorophenyl)-2-chloro-5-methoxybenzenesulfonamide] | 70 nM |  | 150 nM
CC(C)n1nc(-c2cc(F)c(NS(=O)(=O)c3ccccc3Cl)cc2F)c2c(N)ncc(C3=CCC(NC4COC4)CC3)c21 (single isomer, unassigned) [Compound B11, N-(4-(4-amino-1-isopropyl-7-(4-(oxetan-3-ylamino)cyclohex-1-en-1-yl)-1H-pyrazolo[4,3-c]pyridin-3-yl)-2,5-difluorophenyl)-2-chlorobenzenesulfonamide] | 34 nM |  | 500 nM
CC(C)n1nc(-c2ccc(NS(=O)(=O)Cc3ccccc3Cl)c(F)c2)c2c(N)ncc(C3=CCC(NC4COC4)CC3)c21 (single isomer, unassigned) [Compound B13, N-(4-(4-amino-1-isopropyl-7-(4-(oxetan-3-ylamino)cyclohex-1-en-1-yl)-1H-pyrazolo[4,3-c]pyridin-3-yl)-2-fluorophenyl)-1-(2-chlorophenyl)methanesulfonamide] | 5.2 nM |  | 90 nM
CC(C)n1nc(-c2ccc(NS(=O)(=O)c3cc(Cl)ccc3F)c(F)c2)c2c(N)ncc(C3=CCC(NC4COC4)CC3)c21 (single isomer, unassigned) [Compound B14, N-(4-(4-amino-1-isopropyl-7-(4-(oxetan-3-ylamino)cyclohex-1-en-1-yl)-1H-pyrazolo[4,3-c]pyridin-3-yl)-2-fluorophenyl)-5-chloro-2-fluorobenzenesulfonamide] | 6.8 nM |  | 160 nM
CC(C)n1nc(-c2ccc(NS(=O)(=O)c3cc(Cl)ccc3F)c(F)c2)c2c(N)ncc(C3=CCC(NC4COC4)CC3)c21 (single isomer, unassigned) [Compound B15, N-(4-(4-amino-1-isopropyl-7-(4-(oxetan-3-ylamino)cyclohex-1-en-1-yl)-1H-pyrazolo[4,3-c]pyridin-3-yl)-2-fluorophenyl)-5-chloro-2-fluorobenzenesulfonamide] | 1.4 nM |  | 24 nM
Cc1ccc(F)c(S(=O)(=O)Nc2ccc(-c3nn(C(C)C)c4c(C5=CCC(NC6COC6)CC5)cnc(N)c34)cc2F)c1 (single isomer, unassigned) [Compound B16, N-(4-(4-amino-1-isopropyl-7-(4-(oxetan-3-ylamino)cyclohex-1-en-1-yl)-1H-pyrazolo[4,3-c]pyridin-3-yl)-2-fluorophenyl)-2-fluoro-5-methylbenzenesulfonamide] | 13 nM |  | 110 nM
Cc1ccc(F)c(S(=O)(=O)Nc2ccc(-c3nn(C(C)C)c4c(C5=CCC(NC6COC6)CC5)cnc(N)c34)cc2F)c1 (single isomer, unassigned) [Compound B17, N-(4-(4-amino-1-isopropyl-7-(4-(oxetan-3-ylamino)cyclohex-1-en-1-yl)-1H-pyrazolo[4,3-c]pyridin-3-yl)-2-fluorophenyl)-2-fluoro-5-methylbenzenesulfonamide] | 2.2 nM |  | 21 nM
Nc1ncc(C2=CCC(NC3COC3)CC2)c2c1c(-c1ccc(NS(=O)(=O)c3ccccc3Cl)c(F)c1)nn2C1CC1 (single isomer, unassigned) [Compound B18, N-(4-(4-amino-1-cyclopropyl-7-(4-(oxetan-3-ylamino)cyclohex-1-en-1-yl)-1H-pyrazolo[4,3-c]pyridin-3-yl)-2-fluorophenyl)-2-chlorobenzenesulfonamide] | 9.9 nM |  | 82 nM
Nc1ncc(C2=CCC(NC3COC3)CC2)c2c1c(-c1ccc(NS(=O)(=O)c3ccccc3Cl)c(F)c1)nn2C1CC1 (single isomer, unassigned) [Compound B19, N-(4-(4-amino-1-cyclopropyl-7-(4-(oxetan-3-ylamino)cyclohex-1-en-1-yl)-1H-pyrazolo[4,3-c]pyridin-3-yl)-2-fluorophenyl)-2-chlorobenzenesulfonamide] | 3.5 nM |  | 20 nM
Nc1ncc(C2=CCC(NC3COC3)CC2)c2c1c(-c1ccc(NS(=O)(=O)Cc3ccccc3Cl)c(F)c1)nn2C1CC1 (single isomer, unassigned) [Compound B22, N-(4-(4-amino-1-cyclopropyl-7-(4-(oxetan-3-ylamino)cyclohex-1-en-1-yl)-1H-pyrazolo[4,3-c]pyridin-3-yl)-2-fluorophenyl)-1-(2-chlorophenyl)methanesulfonamide] | 0.9 nM |  | 10 nM
Nc1ncc(C2=CCC(NC3COC3)CC2)c2c1c(-c1ccc(NS(=O)(=O)Cc3ccccc3Cl)c(F)c1)nn2C1CC1 (single isomer, unassigned) [Compound B23, N-(4-(4-amino-1-cyclopropyl-7-(4-(oxetan-3-ylamino)cyclohex-1-en-1-yl)-1H-pyrazolo[4,3-c]pyridin-3-yl)-2-fluorophenyl)-1-(2-chlorophenyl)methanesulfonamide] | 3.1 nM |  | 46 nM
CCn1nc(-c2ccc(NS(=O)(=O)Cc3ccccc3Cl)cc2)c2c(N)ncc(C3=CCC(NC4COC4)CC3)c21 (single isomer, unassigned) [Compound B24, N-(4-(4-amino-1-ethyl-7-(4-(oxetan-3-ylamino)cyclohex-1-en-1-yl)-1H-pyrazolo[4,3-c]pyridin-3-yl)phenyl)-1-(2-chlorophenyl)methanesulfonamide] | 53 nM |  | 580 nM
CCn1nc(-c2ccc(NS(=O)(=O)Cc3ccccc3F)c(F)c2)c2c(N)ncc(C3=CCC(NC4COC4)CC3)c21 (single isomer, unassigned) [Compound B27, N-(4-(4-amino-1-ethyl-7-(4-(oxetan-3-ylamino)cyclohex-1-en-1-yl)-1H-pyrazolo[4,3-c]pyridin-3-yl)-2-fluorophenyl)-1-(2-fluorophenyl)methanesulfonamide] | 5.9 nM |  | 78 nM
CCn1nc(-c2ccc(NS(=O)(=O)Cc3ccccc3Cl)c(F)c2)c2c(N)ncc(C3=CCC(NC4COC4)CC3)c21 (single isomer, unassigned) [Compound B29, N-(4-(4-amino-1-ethyl-7-(4-(oxetan-3-ylamino)cyclohex-1-en-1-yl)-1H-pyrazolo[4,3-c]pyridin-3-yl)-2-fluorophenyl)-1-(2-chlorophenyl)methanesulfonamide] | 7.4 nM |  | 68 nM
